Values of other authors as cited in US20210401846A1, “MEDICAMENT, COMPOUND, COMPOSITION AND METHOD FOR TREATING HERPES” (priority 2020, published 2021).
Where two headings read alike, the source gives them in different places. Values belong to the compound of their own block, whether it stands above or below them.

Experiments:
[1] = not given; remark: listed apart in the source
aldehyde oxidase = target: T1, aldehyde oxidase (Homo sapiens, UniProt Q06278); conditions: in vitro inhibitors of aldehyde oxidase
T1 construct: host or cells: endogenous enzyme in vivo
T1 sequence (Q06278 1-1338): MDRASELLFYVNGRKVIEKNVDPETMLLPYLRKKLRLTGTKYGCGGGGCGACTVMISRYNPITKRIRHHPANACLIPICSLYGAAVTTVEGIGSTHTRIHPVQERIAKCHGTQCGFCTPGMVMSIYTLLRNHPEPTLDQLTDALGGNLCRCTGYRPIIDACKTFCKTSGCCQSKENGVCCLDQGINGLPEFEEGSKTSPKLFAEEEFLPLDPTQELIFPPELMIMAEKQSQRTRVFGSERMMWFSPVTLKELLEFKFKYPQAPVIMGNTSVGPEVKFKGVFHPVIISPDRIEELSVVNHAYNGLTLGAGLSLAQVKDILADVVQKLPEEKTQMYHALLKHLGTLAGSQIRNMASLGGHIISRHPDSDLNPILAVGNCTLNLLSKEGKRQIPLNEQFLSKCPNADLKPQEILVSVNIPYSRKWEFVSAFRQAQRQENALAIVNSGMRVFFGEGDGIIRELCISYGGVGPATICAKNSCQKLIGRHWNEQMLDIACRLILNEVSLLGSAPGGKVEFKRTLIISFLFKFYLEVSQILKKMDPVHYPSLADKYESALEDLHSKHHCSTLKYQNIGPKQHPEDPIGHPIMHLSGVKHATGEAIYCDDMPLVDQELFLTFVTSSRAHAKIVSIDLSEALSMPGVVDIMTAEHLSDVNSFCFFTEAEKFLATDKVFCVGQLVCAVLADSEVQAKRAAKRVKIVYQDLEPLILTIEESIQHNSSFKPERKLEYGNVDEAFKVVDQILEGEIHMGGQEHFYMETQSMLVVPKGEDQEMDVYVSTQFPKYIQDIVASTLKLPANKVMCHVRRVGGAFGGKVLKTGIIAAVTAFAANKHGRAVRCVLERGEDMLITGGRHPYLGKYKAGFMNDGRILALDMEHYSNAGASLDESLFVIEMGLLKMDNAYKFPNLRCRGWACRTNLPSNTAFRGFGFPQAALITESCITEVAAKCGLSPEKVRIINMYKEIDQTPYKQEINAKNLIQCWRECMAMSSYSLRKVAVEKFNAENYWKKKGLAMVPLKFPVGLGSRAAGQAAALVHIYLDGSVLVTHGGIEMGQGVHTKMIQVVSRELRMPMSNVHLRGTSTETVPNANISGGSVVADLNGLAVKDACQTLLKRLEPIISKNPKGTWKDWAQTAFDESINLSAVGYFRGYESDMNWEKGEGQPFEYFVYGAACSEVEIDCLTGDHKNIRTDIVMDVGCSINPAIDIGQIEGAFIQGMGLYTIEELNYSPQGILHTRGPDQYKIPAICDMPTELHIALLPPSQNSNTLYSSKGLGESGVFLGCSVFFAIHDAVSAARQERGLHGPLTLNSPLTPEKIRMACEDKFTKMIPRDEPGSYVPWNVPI

cytochrome P450 = conditions: human liver microsomes
[2] = during therapy
[3] = not given; remark: listed apart in the source
[4] = not given; remark: listed apart in the source
[5] = for half-life: 17 patients with herpes zoster
[6] = after single oral 500 mg radiolabeled famciclovir
[7] = single oral 500 mg radiolabeled famciclovir, 3 healthy male volunteers
[8] = oral administration of radiolabeled valacyclovir
[9] = oral single dose 500 mg famciclovir, 7 patients with herpes zoster

Compound: Nc1ncc2ncn(CCC(CO)CO)c2n1 [6-deoxy penciclovir]
- share of the radioactivity excreted in the urine [6]: 7%
- inactive metabolite, % of the dose in the urine (oral administration of famciclovir): 5%

Compound: Nc1nc2c(ncn2COCCO)c(=O)[nH]1 [Acyclovir]
- Excretion: urine, primarily as acyclovir ([1]; in vivo): 89%

Compound: CN/C(=N/CCSCc1nc[nH]c1C)NC#N [Cimetidine]
- effects on the formation of penciclovir in vivo (aldehyde oxidase): did not show relevant effects

Compound: CC(=O)OCC(CCn1cnc2cnc(N)nc21)COC(C)=O [Famciclovir, famciclovir]
- famciclovir detected in plasma or urine (oral administration): Little or no
- radiolabeled dose collected in urine in the first 6 hours (single oral 500 mg radiolabeled famciclovir): Approximately 60%
- administered radioactivity recovered in feces over 72 hours [7]: 27%
- administered radioactivity recovered in urine over 72 hours [7]: 73%
- role of cytochrome P450 in famciclovir metabolism (cytochrome P450): does not play an important role
- clinically apparent liver injury [2]: has not been associated with instances of clinically apparent liver injury
- serum ALT elevations [2]: low rate of mild-to-moderate serum ALT elevations

Compound: CC(C)[C@H](N)C(=O)OCCOCn1cnc2c(=O)[nH]c(N)nc21 [Valacyclovir]
- Half-life elimination ([1]; normal renal function, adults): ~0.5 h
- Bioavailability ([1]; once converted to acyclovir): ~55%
- label eliminated in the feces (nonabsorbed drug) [1, 8]: 46%
- radiolabel eliminated in the urine [1, 8]: 47%
- Absorption ([1]; valacyclovir): Rapid
- clinically apparent liver injury [2]: rare instances mild, clinically apparent liver injury

Other lines, results leading:

- dose excreted in the first 6 hours (5 mg/kg radiolabeled penciclovir, 1-hour infusion): 83%
- administered radioactivity recovered in urine over 24 hours (5 mg/kg radiolabeled penciclovir, 1-hour infusion, 3 healthy male volunteers): Approximately 94%
- accumulation of penciclovir (500 mg famciclovir three times daily for 7 days): no accumulation
- share of the radioactivity excreted in the urine (after 5 mg/kg radiolabeled penciclovir infusion): 91%
- share of the radioactivity excreted in the urine [6]: 82%
- Penciclovir concentrations vs dose (famciclovir 125 mg to 1000 mg single dose): increased in proportion to dose
- renal clearance as share of total plasma clearance (intravenous penciclovir): 74.5±8.8%
- blood/plasma ratio [3]: approximately 1
- bound to plasma proteins ([3]; concentration range 0.1 to 20 mcg/mL): < 20%
- Cmax decrease ([4]; capsule formulation of famciclovir administered with food (approx. 910 Kcal, 26% fat)): approximately 50%
- decrease in Cmax ([4]; famciclovir 2 hours after a meal vs 2 hours before a meal): 18%
- half-life ([5]; repeated doses): 2.7 ± 1.0 h
- half-life ([5]; single dose): 2.8 ± 1.0 h
- AUC of penciclovir greater in patients with herpes zoster as compared to healthy volunteers ([5]; human, in vivo): approximately 35%
- AUC (mean±SD) [5, 9]: 12100 ± 1700 ng·h/mL
- Cmax [5, 9]: 4000 ± 700 ng/mL
- tmax [5, 9]: 0.7 ± 0.2 h
Compound: Nc1nc2c(ncn2CCC(CO)CO)c(=O)[nH]1 [penciclovir]

- effects on the formation of penciclovir in vivo (aldehyde oxidase): did not show relevant effects
Compound: CC(CN1c2ccccc2Sc2ccccc21)N(C)C (centres unmarked) [promethazine]
